{"source": "patent US5358947A", "about": "“Angiotensin II receptor blocking 2,3-substituted pyrazolo[1,5-a]-1,3,5-triazin-4(3H)-ones” (American Cyanamid Company, priority 1993, dated 1994)", "system": "ANGIOTENSIN II (AII) VASOPRESSOR RESPONSE", "assay": "AII Challenge: angiotensin II (AII) vasopressor response in conscious rats", "format": "in vivo", "parameters": "Response After AII / Change / Average Change: unit not given here", "settings": "10 mg/kg i.v.; for Response After AII / Change / Control Before AII: individual rat; for Control Before AII: in mmHg (unit assumed); for % Inhibition / Average Change: n = 2", "procedure,_shortened": "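Conscious male Okamoto-Aoki SHR (16-20 weeks, ~330 g), aorta/vena cava cannulated, challenged with AII 0.05 and 0.1 ug/kg i.v. before and at 30-300 min after compound dosed i.v., i.p. or orally. Systolic pressure rise expressed relative to each rat's predose response (100%).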", "key": {"[1]": {"settings": "AII 0.05 mcg/kg, 30 min post dose"}, "[2]": {"settings": "AII 0.05 mcg/kg, 30 min post dose, listed as Ex. 21, potassium salt"}, "[3]": {"settings": "AII 0.05 mcg/kg, 60 min post dose, listed as Ex. 21, potassium salt"}, "[4]": {"settings": "AII 0.05 mcg/kg, 90 min post dose, listed as Ex. 21, potassium salt"}, "[5]": {"settings": "AII 0.05 mcg/kg, 120 min post dose, listed as Ex. 21, potassium salt"}, "[6]": {"settings": "AII 0.05 mcg/kg, 180 min post dose, listed as Ex. 21, potassium salt"}, "[7]": {"settings": "AII 0.05 mcg/kg, 240 min post dose, listed as Ex. 21, potassium salt"}, "[8]": {"settings": "AII 0.05 mcg/kg, 300 min post dose, listed as Ex. 21, potassium salt"}, "[9]": {"settings": "AII 0.1 mcg/kg, 30 min post dose"}, "[10]": {"settings": "AII 0.1 mcg/kg, 30 min post dose, listed as Ex. 21, potassium salt"}, "[11]": {"settings": "AII 0.1 mcg/kg, 60 min post dose, listed as Ex. 21, potassium salt"}, "[12]": {"settings": "AII 0.1 mcg/kg, 90 min post dose, listed as Ex. 21, potassium salt"}, "[13]": {"settings": "AII 0.1 mcg/kg, 120 min post dose, listed as Ex. 21, potassium salt"}, "[14]": {"settings": "AII 0.1 mcg/kg, 180 min post dose, listed as Ex. 21, potassium salt"}, "[15]": {"settings": "AII 0.1 mcg/kg, 240 min post dose, listed as Ex. 21, potassium salt"}, "[16]": {"settings": "AII 0.1 mcg/kg, 300 min post dose, listed as Ex. 21, potassium salt"}}, "note": "“And” between values parts separate entries of the source, which are not always exact repeats. Equal values may be shown once. Where a name gives a salt, the structure may show the parent alone.", "data": [{"smiles": "CCCCc1nc2ccnn2c(=O)n1Cc1ccc(-c2ccccc2-c2nn[nH]n2)cc1", "note": "[Example 21, 2-Butyl-3-[[2'-(1H-tetrazol-5-yl)-[[1,1'-biphenyl]-4-yl]methyl]-pyrazolo[1,5-a]-1,3,5-triazin-4(3H)-one potassium salt]", "values": [{"measurement": "Response After AII", "setting": "[1]", "value": 220}, {"measurement": "Change", "setting": "[2]", "value": "5 and 25"}, {"measurement": "Response After AII", "setting": "[2]", "value": 225}, {"measurement": "Control Before AII", "setting": "[2]", "value": "215 and 200"}, {"measurement": "% Inhibition", "setting": "[1]", "value": 65, "unit": "%"}, {"measurement": "Average Change", "setting": "[1]", "value": 15}, {"measurement": "Change", "setting": "[3]", "value": "25 and 40"}, {"measurement": "Response After AII", "setting": "[3]", "value": "235 and 250"}, {"measurement": "Control Before AII", "setting": "[3]", "value": 210}, {"measurement": "% Inhibition", "setting": "[3]", "value": 24, "unit": "%"}, {"measurement": "Average Change", "setting": "[3]", "value": 32.5}, {"measurement": "Change", "setting": "[4]", "value": 20}, {"measurement": "Response After AII", "setting": "[4]", "value": "230 and 260"}, {"measurement": "Control Before AII", "setting": "[4]", "value": "210 and 240"}, {"measurement": "% Inhibition", "setting": "[4]", "value": 53, "unit": "%"}, {"measurement": "Average Change", "setting": "[4]", "value": 20}, {"measurement": "Control Before AII", "setting": "AII 0.05 mcg/kg, 120 min post dose", "value": 220}, {"measurement": "Change", "setting": "[5]", "value": "20 and 30"}, {"measurement": "Response After AII", "setting": "[5]", "value": "240 and 255"}, {"measurement": "Control Before AII", "setting": "[5]", "value": 225}, {"measurement": "% Inhibition", "setting": "[5]", "value": 41, "unit": "%"}, {"measurement": "Average Change", "setting": "[5]", "value": 25}, {"measurement": "Change", "setting": "[6]", "value": "21 and 45"}, {"measurement": "Response After AII", "setting": "[6]", "value": "245 and 255"}, {"measurement": "Control Before AII", "setting": "[6]", "value": "224 and 210"}, {"measurement": "% Inhibition", "setting": "[6]", "value": 22, "unit": "%"}, {"measurement": "Average Change", "setting": "[6]", "value": 33}, {"measurement": "Change", "setting": "[7]", "value": "25 and 35"}, {"measurement": "Response After AII", "setting": "[7]", "value": "245 and 250"}, {"measurement": "Control Before AII", "setting": "[7]", "value": "220 and 215"}, {"measurement": "% Inhibition", "setting": "[7]", "value": 29, "unit": "%"}, {"measurement": "Average Change", "setting": "[7]", "value": 30}, {"measurement": "Change", "setting": "[8]", "value": "31 and 40"}, {"measurement": "Response After AII", "setting": "[8]", "value": "245 and 250"}, {"measurement": "Control Before AII", "setting": "[8]", "value": "214 and 210"}, {"measurement": "% Inhibition", "setting": "[8]", "value": 16, "unit": "%"}, {"measurement": "Average Change", "setting": "[8]", "value": 35.5}, {"measurement": "Response After AII", "setting": "[9]", "value": 230}, {"measurement": "Change", "setting": "[10]", "value": "15 and 30"}, {"measurement": "Response After AII", "setting": "[10]", "value": 225}, {"measurement": "Control Before AII", "setting": "[10]", "value": "210 and 200"}, {"measurement": "% Inhibition", "setting": "[9]", "value": 58, "unit": "%"}, {"measurement": "Average Change", "setting": "[9]", "value": 22.5}, {"measurement": "Change", "setting": "[11]", "value": "20 and 30"}, {"measurement": "Response After AII", "setting": "[11]", "value": "245 and 255"}, {"measurement": "Control Before AII", "setting": "[11]", "value": 225}, {"measurement": "% Inhibition", "setting": "[11]", "value": 53, "unit": "%"}, {"measurement": "Average Change", "setting": "[11]", "value": 25}, {"measurement": "Change", "setting": "[12]", "value": "30 and 35"}, {"measurement": "Response After AII", "setting": "[12]", "value": "245 and 260"}, {"measurement": "Control Before AII", "setting": "[12]", "value": "215 and 225"}, {"measurement": "% Inhibition", "setting": "[12]", "value": 39, "unit": "%"}, {"measurement": "Average Change", "setting": "[12]", "value": 32.5}, {"measurement": "Change", "setting": "[13]", "value": "35 and 40"}, {"measurement": "Response After AII", "setting": "[13]", "value": "255 and 265"}, {"measurement": "Control Before AII", "setting": "[13]", "value": "220 and 225"}, {"measurement": "% Inhibition", "setting": "[13]", "value": 30, "unit": "%"}, {"measurement": "Average Change", "setting": "[13]", "value": 37.5}, {"measurement": "Control Before AII", "setting": "AII 0.1 mcg/kg, 180 min post dose", "value": 240}, {"measurement": "Change", "setting": "[14]", "value": "30 and 35"}, {"measurement": "Response After AII", "setting": "[14]", "value": "255 and 275"}, {"measurement": "Control Before AII", "setting": "[14]", "value": 225}, {"measurement": "% Inhibition", "setting": "[14]", "value": 39, "unit": "%"}, {"measurement": "Average Change", "setting": "[14]", "value": 32.5}, {"measurement": "Change", "setting": "[15]", "value": 40}, {"measurement": "Response After AII", "setting": "[15]", "value": "265 and 260"}, {"measurement": "Control Before AII", "setting": "[15]", "value": "225 and 220"}, {"measurement": "% Inhibition", "setting": "[15]", "value": 25, "unit": "%"}, {"measurement": "Average Change", "setting": "[15]", "value": 40}, {"measurement": "Change", "setting": "[16]", "value": "50 and 60"}, {"measurement": "Response After AII", "setting": "[16]", "value": "265 and 280"}, {"measurement": "Control Before AII", "setting": "[16]", "value": "215 and 220"}, {"measurement": "% Inhibition", "setting": "[16]", "value": -3, "unit": "%"}, {"measurement": "Average Change", "setting": "[16]", "value": 55}]}]}
